One experiment has as its system Macrophage. The experiment can be described thus: Effect on nitric oxide production in tetrahydrobiopterin depleted mouse bone marrow macrophages at 1 uM after 72 hrs. It counts as functional.
Experiment [1] deals with Aortic ring. The experiment can be described thus: Relaxation of phenyphrine-induced constriction in rat aortic rings in presence of L-NAME. It counts as functional, Aorta. Further details: scale not given: the % may be the effect or the level left.
Experiment [2] in a line: Effect on nitric oxide production in tetrahydrobiopterin depleted pig pulmonary artery endothelial cells at 30 uM after 72 hrs. It counts as functional, Sus scrofa, Endothelial cell.
Experiment [3] deals with Aortic ring. The experiment can be described thus: Relaxation of phenyphrine-induced constriction in rat aortic rings. It counts as functional, tissue-based. The note with it: Aorta.
Experiment [4] concerns Aortic ring. The experiment can be described thus: Relaxation of phenyphrine-induced constriction in rat aortic rings at 0.3 mM relative to control. It counts as functional, Aorta. Further details: scale not given: the % may be the effect or the level left.
A further experiment deals with Nitric oxide synthase 1 (Homo sapiens, UniProt P29475). The experiment can be described thus: Activity of tetrahydrobiopterin free nNOS.
Chain of Nitric oxide synthase 1 (P29475 whole entry): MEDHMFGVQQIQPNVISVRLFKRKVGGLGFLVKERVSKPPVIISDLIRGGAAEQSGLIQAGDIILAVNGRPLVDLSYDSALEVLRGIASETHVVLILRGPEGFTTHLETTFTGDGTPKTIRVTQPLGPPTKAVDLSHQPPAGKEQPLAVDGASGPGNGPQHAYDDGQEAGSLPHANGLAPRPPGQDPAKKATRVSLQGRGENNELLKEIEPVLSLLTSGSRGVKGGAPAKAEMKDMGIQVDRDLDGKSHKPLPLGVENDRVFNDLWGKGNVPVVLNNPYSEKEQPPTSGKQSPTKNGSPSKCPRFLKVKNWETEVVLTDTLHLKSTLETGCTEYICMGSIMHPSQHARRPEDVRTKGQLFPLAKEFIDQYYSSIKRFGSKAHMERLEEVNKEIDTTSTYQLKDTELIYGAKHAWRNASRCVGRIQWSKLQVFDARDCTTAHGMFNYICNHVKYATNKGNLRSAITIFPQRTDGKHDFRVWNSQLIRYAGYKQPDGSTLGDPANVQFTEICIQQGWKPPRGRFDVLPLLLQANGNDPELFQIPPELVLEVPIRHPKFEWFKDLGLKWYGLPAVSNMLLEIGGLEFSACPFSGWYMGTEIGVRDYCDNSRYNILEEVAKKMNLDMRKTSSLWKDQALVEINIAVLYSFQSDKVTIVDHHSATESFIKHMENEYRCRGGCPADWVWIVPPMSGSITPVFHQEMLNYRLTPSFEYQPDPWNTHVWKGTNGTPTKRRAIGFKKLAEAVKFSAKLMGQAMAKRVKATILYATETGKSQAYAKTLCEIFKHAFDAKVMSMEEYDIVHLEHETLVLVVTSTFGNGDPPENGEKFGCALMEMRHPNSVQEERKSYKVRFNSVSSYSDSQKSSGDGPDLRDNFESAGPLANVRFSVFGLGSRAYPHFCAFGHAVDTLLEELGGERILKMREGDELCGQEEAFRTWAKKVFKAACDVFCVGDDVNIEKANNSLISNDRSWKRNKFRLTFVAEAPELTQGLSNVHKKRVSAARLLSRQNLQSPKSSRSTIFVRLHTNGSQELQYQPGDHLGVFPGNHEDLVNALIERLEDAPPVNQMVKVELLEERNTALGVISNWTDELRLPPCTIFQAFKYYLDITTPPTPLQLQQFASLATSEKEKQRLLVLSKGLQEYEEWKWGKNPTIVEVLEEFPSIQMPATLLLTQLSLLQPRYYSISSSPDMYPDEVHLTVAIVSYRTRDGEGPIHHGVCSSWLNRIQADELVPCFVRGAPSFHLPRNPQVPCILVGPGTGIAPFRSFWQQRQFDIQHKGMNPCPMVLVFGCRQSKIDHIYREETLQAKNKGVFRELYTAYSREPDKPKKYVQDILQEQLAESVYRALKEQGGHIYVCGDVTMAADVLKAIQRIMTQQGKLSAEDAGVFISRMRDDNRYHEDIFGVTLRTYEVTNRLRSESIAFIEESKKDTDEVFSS

Each structure is given as a SMILES string.

As a reminder, the EC50 is the concentration needed to bring the measured effect to its halfway point. As to `CC(=O)C1=Nc2c(nc(N)[nH]c2=O)NC1(C)C`, the Activity in the experiment on Macrophage was 6.2 µM; in the experiment on Aortic ring [1] it was 5.4%; in experiment [2], 11.4 µM; in the experiment with Aortic ring [4], 24.2%. Further, the EC50 in the experiment with Aortic ring [3] is 10 nM.

By Kd is commonly meant the equilibrium constant for the complex coming apart. In turn, `CC(=O)C1Nc2c(nc(N)[nH]c2=O)NC1(C)C` (configuration not stated) showed an equilibrium dissociation constant (Kd) on Nitric oxide synthase 1 of 151000 nM.

In turn, `C[C@H](O)[C@H](O)[C@H]1CNc2nc(N)[nH]c(=O)c2N1` [SAPROPTERIN] returned a Kd at Nitric oxide synthase 1 of 1120 nM.

The values are drawn from ChEMBL document CHEMBL1143118, “6-Acetyl-7,7-dimethyl-5,6,7,8-tetrahydropterin is an activator of nitric oxide synthases” (Bioorg Med Chem Lett, 2008).
